Legend:
Assay type in all cases: in vivo
[1] = system: Japanese bulrush (Scirpus juncoides Roxb.); experiment: Test Example 1: herbicidal effect by soil application to paddy field; settings: paddy field soil application; active ingredient 1,000 g per 1 hectare; wettable powder added dropwise to water surface the day after sowing; examined on the 21st day after application
How it was run: (§1)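 Under greenhouse conditions, seeds sown on puddled paddy soil in 100 cm2 pots under 3 cm of standing water received the test compound; injury was assessed with a standard scoring scheme three weeks (day 21) after treatment.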

[2] = system: early watergrass (Echinochloa oryzicola Vasing); experiment: as above; settings: paddy field soil application; active ingredient 1,000 g per 1 hectare; wettable powder added dropwise to water surface the day after sowing; examined on the 21st day after application
How it was run: as §1

[3] = system: heartshape false pickerelweed (Monochoria vaginalis (Burm.f.) C.Presl); experiment: as above; settings: paddy field soil application; active ingredient 1,000 g per 1 hectare; wettable powder added dropwise to water surface the day after sowing; examined on the 21st day after application
How it was run: as §1

[4] = system: barnyardgrass (Echinochloa crus-galli (L.) P. Beauv. var. crus-galli); experiment: Test Example 2: herbicidal effect by soil application to upland field; settings: soil surface spray, upland field soil, 1,000 g active ingredient per hectare, 21st day after application
How it was run: (§2)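 Seeds were sown in field soil, covered, and the soil surface sprayed with a water-diluted wettable powder at 1,000 g active ingredient per hectare in 1,000 L/ha. Plants grew in a greenhouse, and herbicidal effect was rated against a standard scale 21 days after application.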

[5] = system: green foxtail (Setaria viridis (L.) P. Beauv.); experiment: as above; settings: soil surface spray, upland field soil, 1,000 g active ingredient per hectare, 21st day after application
How it was run: as §2

[6] = system: slender amaranth (Amaranthus viridis L.); experiment: as above; settings: soil surface spray, upland field soil, 1,000 g active ingredient per hectare, 21st day after application
How it was run: as §2

[7] = system: velvetleaf (Abutilon theophrasti medicus); experiment: as above; settings: soil surface spray, upland field soil, 1,000 g active ingredient per hectare, 21st day after application
How it was run: as §2

[8] = system: barnyardgrass (Echinochloa crus-galli (L.) P. Beauv. var. crus-galli); experiment: Test Example 3: herbicidal effect by application to upland field (foliage treatment); settings: foliage treatment, plants grown two weeks, 1,000 g active ingredient per hectare, 14th day after application
How it was run: (§3)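 Foliar spray on two-week-old greenhouse weeds in field soil: wettable powder formulation diluted in water, applied at 1,000 L/ha to give 1,000 g a.i./ha. Damage rated by a fixed scoring standard on day 14 after application.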

[9] = system: green foxtail (Setaria viridis (L.) P. Beauv.); experiment: as above; settings: foliage treatment, plants grown two weeks, 1,000 g active ingredient per hectare, 14th day after application
How it was run: as §3

[10] = system: slender amaranth (Amaranthus viridis L.); experiment: as above; settings: foliage treatment, plants grown two weeks, 1,000 g active ingredient per hectare, 14th day after application
How it was run: as §3

[11] = system: velvetleaf (Abutilon theophrasti medicus); experiment: as above; settings: foliage treatment, plants grown two weeks, 1,000 g active ingredient per hectare, 14th day after application
How it was run: as §3

Compound | herbicidal effect, Scirpus juncoides Roxb. [1] | herbicidal effect, Echinochloa oryzicola Vasing [2] | herbicidal effect, Monochoria vaginalis (Burm. f.) C. Presl [3] | herbicidal effect (index), Barnyardgrass [4] | herbicidal effect (index), Green Foxtail [5] | herbicidal effect (index), Slender Amaranth [6] | herbicidal effect (index), Velvetleaf [7] | herbicidal effect (index), Barnyardgrass [8] | herbicidal effect (index), Green Foxtail [9] | herbicidal effect (index), Slender Amaranth [10] | herbicidal effect (index), Velvetleaf [11]
O=C1CCCC(O)=C1C(=O)c1ccc(C(F)(F)F)n(CS(=O)(=O)CC2CC2)c1=O [I-58] | 5 (90% or more of herbicidal effect and crop phytotoxicity) | 5 (90% or more of herbicidal effect and crop phytotoxicity) | 5 (90% or more of herbicidal effect and crop phytotoxicity) | 5 (90% or more of herbicidal effect and crop phytotoxicity) | 5 (90% or more of herbicidal effect and crop phytotoxicity) | 5 (90% or more of herbicidal effect and crop phytotoxicity) | 5 (90% or more of herbicidal effect and crop phytotoxicity) | 5 (90% or more of herbicidal effect and crop phytotoxicity) | 5 (90% or more of herbicidal effect and crop phytotoxicity) | 5 (90% or more of herbicidal effect and crop phytotoxicity) | 5 (90% or more of herbicidal effect and crop phytotoxicity)
O=C1CCCC(O)=C1C(=O)c1ccc(C(F)(F)F)n(CSC2CCCC2)c1=O [I-59] | 5 (90% or more of herbicidal effect and crop phytotoxicity) | 5 (90% or more of herbicidal effect and crop phytotoxicity) | 5 (90% or more of herbicidal effect and crop phytotoxicity) | 5 (90% or more of herbicidal effect and crop phytotoxicity) | 4 (70 to less than 90% of herbicidal effect and crop phytotoxicity) | 5 (90% or more of herbicidal effect and crop phytotoxicity) | 5 (90% or more of herbicidal effect and crop phytotoxicity) | 5 (90% or more of herbicidal effect and crop phytotoxicity) | 5 (90% or more of herbicidal effect and crop phytotoxicity) | 5 (90% or more of herbicidal effect and crop phytotoxicity) | 5 (90% or more of herbicidal effect and crop phytotoxicity)
O=C1CCCC(O)=C1C(=O)c1ccc(C(F)(F)F)n(CS(=O)(=O)C2CCCC2)c1=O [I-60] | 5 (90% or more of herbicidal effect and crop phytotoxicity) | 5 (90% or more of herbicidal effect and crop phytotoxicity) | 5 (90% or more of herbicidal effect and crop phytotoxicity) | 5 (90% or more of herbicidal effect and crop phytotoxicity) | 5 (90% or more of herbicidal effect and crop phytotoxicity) | 5 (90% or more of herbicidal effect and crop phytotoxicity) | 5 (90% or more of herbicidal effect and crop phytotoxicity) | 5 (90% or more of herbicidal effect and crop phytotoxicity) | 5 (90% or more of herbicidal effect and crop phytotoxicity) | 5 (90% or more of herbicidal effect and crop phytotoxicity) | 5 (90% or more of herbicidal effect and crop phytotoxicity)
C=CCSCn1c(C(F)(F)F)ccc(C(=O)C2=C(O)CCCC2=O)c1=O [I-63] | 5 (90% or more of herbicidal effect and crop phytotoxicity) | 5 (90% or more of herbicidal effect and crop phytotoxicity) | 5 (90% or more of herbicidal effect and crop phytotoxicity) | 5 (90% or more of herbicidal effect and crop phytotoxicity) | 4 (70 to less than 90% of herbicidal effect and crop phytotoxicity) | 5 (90% or more of herbicidal effect and crop phytotoxicity) | 5 (90% or more of herbicidal effect and crop phytotoxicity) | 5 (90% or more of herbicidal effect and crop phytotoxicity) | 5 (90% or more of herbicidal effect and crop phytotoxicity) | 5 (90% or more of herbicidal effect and crop phytotoxicity) | 5 (90% or more of herbicidal effect and crop phytotoxicity)
C[S+]([O-])CCn1c(C(F)(F)F)ccc(C(=O)C2=C(O)CCCC2=O)c1=O (stereo not drawn) [I-66] | 5 (90% or more of herbicidal effect and crop phytotoxicity) | 5 (90% or more of herbicidal effect and crop phytotoxicity) | 5 (90% or more of herbicidal effect and crop phytotoxicity) | 5 (90% or more of herbicidal effect and crop phytotoxicity) | 5 (90% or more of herbicidal effect and crop phytotoxicity) | 5 (90% or more of herbicidal effect and crop phytotoxicity) | 5 (90% or more of herbicidal effect and crop phytotoxicity) | 5 (90% or more of herbicidal effect and crop phytotoxicity) | 5 (90% or more of herbicidal effect and crop phytotoxicity) | 5 (90% or more of herbicidal effect and crop phytotoxicity) | 5 (90% or more of herbicidal effect and crop phytotoxicity)
CS(=O)(=O)CCn1c(C(F)(F)F)ccc(C(=O)C2=C(O)CCCC2=O)c1=O [I-67] | 5 (90% or more of herbicidal effect and crop phytotoxicity) | 5 (90% or more of herbicidal effect and crop phytotoxicity) | 5 (90% or more of herbicidal effect and crop phytotoxicity) | 5 (90% or more of herbicidal effect and crop phytotoxicity) | 5 (90% or more of herbicidal effect and crop phytotoxicity) | 5 (90% or more of herbicidal effect and crop phytotoxicity) | 5 (90% or more of herbicidal effect and crop phytotoxicity) | 5 (90% or more of herbicidal effect and crop phytotoxicity) | 5 (90% or more of herbicidal effect and crop phytotoxicity) | 5 (90% or more of herbicidal effect and crop phytotoxicity) | 5 (90% or more of herbicidal effect and crop phytotoxicity)

From patent US8076487B2, “Pyridone derivative and herbicide” (Kumiai Chemical Industry Co., Ltd., priority 2006, dated 2011)
